Results as given in ChEMBL document CHEMBL2157958, “4-Isoxazolyl-1,4-dihydropyridines exhibit binding at the multidrug-resistance transporter” (Bioorg Med Chem, 2012).

Tests used:
[1] = biological target: MDR1 (P-glycoprotein, ABCB1) (Homo sapiens, UniProt P08183); test: Inhibition of MDR1 in human Caco2 cells assessed as calcein accumulation after 30 mins by fluorescence assay; format: cell-based; set-up: concentration or dose not given beside the values; conditions: Caco-2 cells
[2] = Binding affinity at VGCC by patch clamp method
[3] = Binding affinity at VGCC

Sequence of MDR1 (P-glycoprotein, ABCB1) (P08183 whole entry): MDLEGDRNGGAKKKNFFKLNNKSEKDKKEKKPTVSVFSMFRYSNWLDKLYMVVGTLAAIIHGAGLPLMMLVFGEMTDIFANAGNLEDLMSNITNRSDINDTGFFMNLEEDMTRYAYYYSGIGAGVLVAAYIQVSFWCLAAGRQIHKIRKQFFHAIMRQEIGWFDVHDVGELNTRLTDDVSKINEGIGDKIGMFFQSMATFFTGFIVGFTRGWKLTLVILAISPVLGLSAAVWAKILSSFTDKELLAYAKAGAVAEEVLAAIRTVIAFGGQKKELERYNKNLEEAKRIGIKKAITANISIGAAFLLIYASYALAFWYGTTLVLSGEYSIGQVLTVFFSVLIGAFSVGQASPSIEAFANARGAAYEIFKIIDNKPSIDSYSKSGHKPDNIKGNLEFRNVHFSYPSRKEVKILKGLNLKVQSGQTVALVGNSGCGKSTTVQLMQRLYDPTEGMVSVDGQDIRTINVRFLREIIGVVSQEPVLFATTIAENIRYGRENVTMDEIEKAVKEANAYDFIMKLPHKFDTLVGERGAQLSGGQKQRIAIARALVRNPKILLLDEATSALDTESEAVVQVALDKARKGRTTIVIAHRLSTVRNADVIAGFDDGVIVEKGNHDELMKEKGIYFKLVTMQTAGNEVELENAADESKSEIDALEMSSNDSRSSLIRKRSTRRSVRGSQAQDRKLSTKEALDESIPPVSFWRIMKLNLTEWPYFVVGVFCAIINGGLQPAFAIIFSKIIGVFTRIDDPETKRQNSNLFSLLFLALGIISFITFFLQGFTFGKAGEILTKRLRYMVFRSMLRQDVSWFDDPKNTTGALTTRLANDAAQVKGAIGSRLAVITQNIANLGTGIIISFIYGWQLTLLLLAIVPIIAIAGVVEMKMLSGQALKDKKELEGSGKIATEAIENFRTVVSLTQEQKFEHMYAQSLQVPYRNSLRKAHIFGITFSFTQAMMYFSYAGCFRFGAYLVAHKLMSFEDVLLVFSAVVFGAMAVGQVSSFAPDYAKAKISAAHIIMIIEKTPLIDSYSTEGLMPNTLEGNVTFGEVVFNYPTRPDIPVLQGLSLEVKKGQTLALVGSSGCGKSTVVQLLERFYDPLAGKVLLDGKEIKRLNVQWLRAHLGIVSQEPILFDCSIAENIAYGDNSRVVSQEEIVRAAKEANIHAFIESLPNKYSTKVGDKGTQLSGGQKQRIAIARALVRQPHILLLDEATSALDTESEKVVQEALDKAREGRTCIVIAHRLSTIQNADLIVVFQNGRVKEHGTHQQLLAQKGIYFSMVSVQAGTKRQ

Row | SMILES | inhibition at 0.5 h [1] [%] | Activity [2] [µM] | Ki [3] [nM]
1 | CCOC(=O)C1=C(C)N=C(C)/C(=C(/O)OCC)C1c1c(-c2ccccc2)noc1C(C)C (stereo unspecified) | 38.4 | – | –
2 | CCOC(=O)C1=C(C)N=C(C)/C(=C(/O)OCC)C1c1c(-c2ccccc2Cl)noc1C (stereo unspecified) | 10.9 | 9.68 | –
3 | CCOC(=O)C1=C(C)N=C(C)/C(=C(/O)OCC)C1c1c(-c2ccccc2)noc1C (stereo unspecified) | 48.9 | – | 13.9
4 | CCOC(=O)C1=C(C)N=C(C)/C(=C(/O)OCC)C1c1c(C)noc1CCc1ccc(-c2ccccc2)cc1 (stereo unspecified) | 18.6 | – | 8.69
5 | CCOC(=O)C1=C(C)NC(C)=C(C(=O)OCC)C1c1c(C)noc1C(C)Cc1cccc(Br)c1 (racemic) | 61.2 | – | –
6 | CCOC(=O)C1=C(C)N=C(C)/C(=C(/O)OCC)C1c1c(-c2ccccc2OC)noc1C (stereo unspecified) | 32.8 | 17.1 | –

Results, then the compound that gave them:

Row | inhibition at 0.5 h [1] [%] | Activity [2] [µM] | Ki [3] [nM] | SMILES
7 | 19 | 0.47 | 4.1 | CCOC(=O)C1=C(C)N=C(C)/C(=C(/O)OCC)C1c1c(C)noc1CCc1cccc2ccccc12 (stereo unspecified)
8 | 26.8 | 1.98 | – | CCOC(=O)C1=C(C)N=C(C)/C(=C(/O)OCC)C1c1c(-c2cccc(Cl)c2)noc1C (stereo unspecified)
9 | 11.7 | – | – | CCOC(=O)C1=C(C)N=C(C)/C(=C(/O)OCC)C1c1c(-c2ccc(Cl)cc2)noc1C (stereo unspecified)
10 | 15 | 6.86 | – | CCOC(=O)C1=C(C)N=C(C)/C(=C(/O)OCC)C1c1c(-c2cc(Cl)ccc2OC)noc1C (stereo unspecified)
11 | 27.6 | – | 55.3 | CCOC(=O)C1=C(C)N=C(C)/C(=C(/O)OCC)C1c1c(-c2ccccc2)noc1CCc1ccccc1 (stereo unspecified)
12 | 38.3 | – | – | CCOC(=O)C1=C(C)NC(C)=C(C(=O)OCC)C1c1c(C)noc1C(C)Cc1cccc2ccccc12 (stereo unspecified)
